Experimental data reported in patent US7713914B2 (priority 2005, dated 2010).

Assays:
Bacillus cereus spores = assay type: cell-based
[1] = Solubility of DPA in water; assay type: physicochemical
[2] = test system: Bacillus anthracis endospores

Structure (SMILES): CCCCCCCCCCCCN [DDA, dodecylamine, reference compound]
- Exposure required before a reasonable DPA SERS signal was observed (Bacillus cereus spores): 1 h

Structure (SMILES): O=C(O)c1cccc(C(=O)O)n1 [DPA, dipicolinic acid]
- Solubility in water [1]: only slightly soluble

Structure (SMILES): O=CO [formic acid]
- SERS of DPA (CaDPA release at room temperature) (Bacillus cereus spores): observed

Structure (SMILES): CC(=O)O [glacial acetic acid, acetic acid]
- DPA concentration calculated from 1008 cm-1 peak ([2]; Example 1, hypothetical 1000 spores, 50 microL, 1 minute): 20±10 ng per 1 mL
- Time in which most, if not all, of the CaDPA is released ([2]; acid dispensed onto surface): 1 to 5 min

Structure (SMILES): CC(O)C(=O)O (stereo not shown) [lactic acid]
- SERS of DPA (CaDPA release at room temperature) (Bacillus cereus spores): observed

Structure (SMILES): O=C(O)C(F)(F)F [trifluoroacetic acid]
- SERS of DPA (CaDPA release at room temperature) (Bacillus cereus spores): observed
